The numbers were not newly measured in patent US11167013B2, “Sucrose acetate isobutyrate-based compositions, methods and uses thereof” (ASSOCIATION FOR THE ADVANCEMENT OF TISSUE ENGINEERING CELL …, priority 2017, dated 2021), which cites them from elsewhere.

For data set [1] the following is noted: as food additive.
The conditions of data set [2]: neat SAIB.

For the substance Sucrose acetate isobutyrate [SAIB], the allowable daily intake in data set [1] is 20 mg·kg/day. For the same substance, the viscosity result in data set [2] was “over 100 Pa·s”.
